In patent US20220080016A1, “Antioxidant, Antibacterial Or Anti-Inflammatory Pharmaceutical Composition Containing Scutellaria Baicalensis Extract And Magnolia Officinalis Extract As Active Ingredients” (Genogen Co.,Ltd., priority 2020, published 2022):
In brackets after ≈: the same amount, converted by molar mass.

Assay: DPPH radical scavenging assay
Format: biochemical
Conditions: DPPH radical scavenging activity in 30 minutes
Procedure: FIGS. 4A through 4D show lipid peroxidation and DPPH (1,1-diphenyl-2-picrylhydrazyl) analysis result which were obtained by measuring the antioxidant activity of Comparative Example 1 (SBR), Comparative Example 2 (MOB) and Present Example 1 (GenoTX-407). […] As shown in the upper left graph of FIG. 4, after exposure to FeCl3 (50 μM), TBARS (thiobarbituric acid reactive substances) level increased (74%).

EC50, DPPH: 14.38 µg/mL (≈ 81.6 µM)
Structure (SMILES): O=C1O[C@H]([C@@H](O)CO)C(O)=C1O [ascorbic acid]
